± gives the standard deviation of the averaged measurements.
Test system: MCF7
Assay: HRG-induced Akt activation (dPAkt = log2 pAkt/Akt HRG-stimulated minus log2 pAkt/Akt basal) (log2 ratio difference); higher = stronger HRG-induced Akt(T308) phosphorylation
Conditions: miRNA mimic concentration 10 nM; time after transfection 72 h; heregulin 10 ng/ml; stimulation time 1 h
How it was run: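 Akt activation induced by heregulin was calculated as the difference between stimulated and unstimulated log ratios of phospho-Akt to total Akt, then averaged across replicates. The ratio was taken as log2(pAkt/Akt) from In-Cell Western readings of phospho-Akt(T308) and total Akt on an Odyssey, corrected for column-wise fixation decay. Before reading, MCF7 cells ([…], 96-well plates) transfected with 879 miRNA mimics at 10 nM final via Lipofectamine RNAiMax were, after 72 h, given 10 ng/ml heregulin-beta1 for 1 h or no stimulus, then fixed with 4% PFA. Two biological replicates were run.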

| Sequence | HRG-induced Akt activation (log2) |
| --- | --- |
| UGAGUACCGCCAUGUCUGUUGGG | 1.98 ± 0.09 |
| UUGGGAUCAUUUUGCAUCCAUA | 1.13 ± 0.3 |
| CGUGUUCACAGCGGACCUUGAU | 1.89 ± 0.39 |
| UGAAACAUACACGGGAAACCUC | 1.0374 ± 0.0008 |
| UAGGCAGUGUCAUUAGCUGAUUG | 1.69 ± 0.15 |
| UAAGUGCUUCCAUGUUUUGGUGA | 0.743 ± 0.38 |
| UGUCUUGCAGGCCGUCAUGCA | 1.68 ± 0.5 |
| UGUCUCUGCUGGGGUUUCU | 1.89 ± 0.58 |
| AUGGUACCCUGGCAUACUGAGU | 1.62 ± 0.59 |
| GAGGGUUGGGUGGAGGCUCUCC | 1.47 ± 0.36 |
| AAUGGAUUUUUGGAGCAGG | 2.12 ± 0.2 |
| AACAUAGAGGAAAUUCCACGU | 1.17 ± 0.5 |
| AGACUUCCCAUUUGAAGGUGGC | 1.52 ± 0.18 |
| CAAUGUUUCCACAGUGCAUCAC | 1.1 ± 0.42 |
| AGUAUGUUCUUCCAGGACAGAAC | 1.83 ± 0.087 |
| CCAGUGGGGCUGCUGUUAUCUG | 1.78 ± 0.29 |
| AUCCCACCUCUGCCACCA | 1.2 ± 0.059 |
| GUUCAAAUCCAGAUCUAUAAC | 1.08 ± 0.18 |
| CAACACCAGUCGAUGGGCUGU | 1.34 ± 0.34 |
| AUCCGCGCUCUGACUCUCUGCC | 1.53 ± 0.14 |
| AAAAACUGAGACUACUUUUGCA | 1.33 ± 0.15 |
| UAGCAGCACGUAAAUAUUGGCG | 2.03 ± 0.15 |
| CUGGGAGAGGGUUGUUUACUCC | 0.876 ± 0.34 |
| UGUUCAUGUAGAUGUUUAAGC | 1.08 ± 0.15 |

| Sequence | HRG-induced Akt activation (log2) |
| --- | --- |
| UAAGUGCUUCCAUGCUU | 0.459 ± 0.22 |
| UUAAUAUCGGACAACCAUUGU | 1.72 ± 0.21 |
| AUCACACAAAGGCAACUUUUGU | 1.78 ± 0.33 |
| AGGGGCUGGCUUUCCUCUGGUC | 1.57 ± 0.17 |
| AGGACCUGCGGGACAAGAUUCUU | 1.6 ± 0.091 |
| UCGGAUCCGUCUGAGCUUGGCU | 1.88 ± 0.18 |
| CAAAGAAUUCUCCUUUUGGGCU | 1.74 ± 0.013 |
| AAGCAGCUGCCUCUGAGGC | 2.16 ± 0.21 |
| GUCCCUGUUCAGGCGCCA | 1.73 ± 0.15 |
| UCAGCUGGCCCUCAUUUC | 1.12 ± 0.66 |
| UCUGCAGGGUUUGCUUUGAG | 1.07 ± 0.059 |
| CAAUUUAGUGUGUGUGAUAUUU | 2 ± 0.13 |
| UGAGAACCACGUCUGCUCUGAG | 2.16 ± 0.27 |
| CAAGUCACUAGUGGUUCCGUU | 1.49 ± 0.5 |
| CACUGUGUCCUUUCUGCGUAG | 1.86 ± 0.19 |
| UUCAAGUAAUUCAGGUG | 1.22 ± 0.15 |
| CUGGAUGGCUCCUCCAUGUCU | 1.96 ± 0.42 |
| CGCAGGGGCCGGGUGCUCACCG | 1.59 ± 0.09 |
| CUUCUUGUGCUCUAGGAUUGU | 1.13 ± 0.024 |
| AUCCCUUGCAGGGGCUGUUGGGU | 1.02 ± 0.69 |
| CUGUGCGUGUGACAGCGGCUGA | 0.692 ± 0.043 |
| UACUGCAGACGUGGCAAUCAUG | 1 ± 0.63 |
| ACUCAAAAUGGGGGCGCUUUCC | 1.51 ± 0.055 |
| AAAGUGCUUCCUUUUAGAGGGU | 0.665 ± 0.11 |

| Sequence | HRG-induced Akt activation (log2) |
| --- | --- |
| ACAGAUUCGAUUCUAGGGGAAU | 1.75 ± 0.2 |
| CGGGGUUUUGAGGGCGAGAUGA | 2.25 ± 0.089 |
| UAAGUGCUUCCAUGUUUGAGUGU | 1.17 ± 0.15 |
| UGGACUGCCCUGAUCUGGAGA | 1.55 ± 0.66 |
| AAUAAUACAUGGUUGAUCUUU | 1.38 ± 0.066 |
| UGUAACAGCAACUCCAUGUGGA | 0.984 ± 0.7 |
| ACAGCAGGCACAGACAGGCAGU | 1.75 ± 0.28 |
| UUGCAUAGUCACAAAAGUGAUC | 1.36 ± 0.096 |
| AACGCACUUCCCUUUAGAGUGU | 1.23 ± 0.16 |
| UUGAGAAGGAGGCUGCUG | 1.18 ± 0.17 |
| UCAAAACUGAGGGGCAUUUUCU | 1.34 ± 0.13 |
| GUGAGUCUCUAAGAAAAGAGGA | 1.56 ± 0.38 |
| UUAAUGCUAAUCGUGAUAGGGGU | 0.789 ± 0.062 |
| AGGAAGCCCUGGAGGGGCUGGAG | 1.1 ± 0.6 |
| AUAUUACCAUUAGCUCAUCUUU | 1.42 ± 0.089 |
| UGGUGGUUUACAAAGUAAUUCA | 1.29 ± 0.11 |
| AAAGACAUAGGAUAGAGUCACCUC | 1.9 ± 0.072 |
| CUAUACAGUCUACUGUCUUUCC | 1.85 ± 0.18 |
| ACUGUAGUAUGGGCACUUCCAG | 1.46 ± 0.29 |
| CCACACCGUAUCUGACACUUU | 1.36 ± 0.12 |
| GAACGCGCUUCCCUAUAGAGGGU | 1.42 ± 0.13 |
| UCGUGCAUCCCUUUAGAGUGUU | 1.6 ± 0.022 |
| AGCUGGUGUUGUGAAUCAGGCCG | 1.87 ± 0.075 |
| CUAUACAAUCUAUUGCCUUCCC | 1.44 ± 0.43 |

| Sequence | HRG-induced Akt activation (log2) |
| --- | --- |
| UCAGAACAAAUGCCGGUUCCCAGA | 1.23 ± 0.54 |
| GUGUUGAAACAAUCUCUACUG | 1.53 ± 0.25 |
| UCCAUUACACUACCCUGCCUCU | 1.37 ± 0.17 |
| GGCUAGCAACAGCGCUUACCU | 0.933 ± 0.081 |
| UGGAGAGAAAGGCAGUUCCUGA | 0.965 ± 0.16 |
| CAAACCACACUGUGGUGUUAGA | 1.09 ± 0.76 |
| UUCUCCAAAAGGGAGCACUUUC | 2.3 ± 0.097 |
| AAAGUGCUUCUCUUUGGUGGGU | 0.92 ± 0.047 |
| UCUGCCCCCUCCGCUGCUGCCA | 1.55 ± 0.069 |
| CAUCUUACCGGACAGUGCUGGA | 1.841 ± 0.015 |
| CCGUCGCCGCCACCCGAGCCG | 1.23 ± 0.13 |
| UAUUCAUUUAUCCCCAGCCUACA | 1.59 ± 0.22 |
| UUAAGACUUGCAGUGAUGUUU | 1.25 ± 0.66 |
| UUCACCACCUUCUCCACCCAGC | 1.57 ± 0.62 |
| ACGCCCUUCCCCCCCUUCUUCA | 1.22 ± 0.47 |
| CAAAGGUAUUUGUGGUUUUUG | 1.74 ± 0.066 |
| UGCCUACUGAGCUGAAACACAG | 1.549 ± 0.007 |
| AAAGUGCAUCCUUUUAGAGUGU | 0.756 ± 0.11 |
| UGGGUCUUUGCGGGCGAGAUGA | 1.89 ± 0.21 |
| AGUUAGGAUUAGGUCGUGGAA | 1 ± 0.39 |
| UCCAGUGCCCUCCUCUCC | 1.131 ± 0.0093 |
| ACCCGUCCCGUUCGUCCCCGGA | 1.513 ± 0.0044 |
| CUGCCAAUUCCAUAGGUCACAG | 1.47 ± 0.11 |
| CAAGUCUUAUUUGAGCACCUGUU | 1.94 ± 0.12 |

| Sequence | HRG-induced Akt activation (log2) |
| --- | --- |
| UUUGUUCGUUCGGCUCGCGUGA | 1.23 ± 0.27 |
| AAUCCUUGGAACCUAGGUGUGAGU | 2.15 ± 0.11 |
| ACGUUGGCUCUGGUGGUG | 1.17 ± 0.014 |
| AUAUAAUACAACCUGCUAAGUG | 0.999 ± 0.15 |
| ACUUACAGACAAGAGCCUUGCUC | 1.68 ± 0.16 |
| CUAGACUGAAGCUCCUUGAGG | 1.46 ± 0.25 |
| CAGUGGUUUUACCCUAUGGUAG | 1.91 ± 0.035 |
| CAAAAACCACAGUUUCUUUUGC | 0.997 ± 0.23 |
| AAAGUGCUGCGACAUUUGAGCGU | 0.644 ± 0.26 |
| ACUUAAACGUGGAUGUACUUGCU | 1.93 ± 0.26 |
| UCUCCCAACCCUUGUACCAGUG | 1.51 ± 0.26 |
| GCCCGCGUGUGGAGCCAGGUGU | 1.39 ± 0.14 |
| UUUUGCAAUAUGUUCCUGAAUA | 1.01 ± 0.24 |
| UGGGUGGUCUGGAGAUUUGUGC | 1.58 ± 0.13 |
| CUCCAGAGGGAUGCACUUUCU | 1.83 ± 0.3 |
| UCCCUGAGACCCUUUAACCUGUGA | 1.77 ± 0.13 |
| UUUGUGACCUGGUCCACUAACC | 1.16 ± 0.88 |
| UGAGUGUGUGUGUGUGAGUGUGU | 2.295 ± 0.0047 |
| UUUCCGGCUCGCGUGGGUGUGU | 1.627 ± 0.015 |
| AACUGUUUGCAGAGGAAACUGA | 1.816 ± 0.014 |
| CAGUGCAAUGAUGAAAGGGCAU | 1.31 ± 0.024 |
| AAAACGGUGAGAUUUUGUUUU | 1.75 ± 0.2 |
| ACAAAGUGCUUCCCUUUAGAGU | 1.75 ± 0.12 |
| AGGCACCAGCCAGGCAUUGCUCAGC | 1.51 ± 0.2 |

| Sequence | HRG-induced Akt activation (log2) |
| --- | --- |
| GAAGGCGCUUCCCUUUAGAGCG | 1.1 ± 0.5 |
| AGUUAAUGAAUCCUGGAAAGU | 1.46 ± 0.25 |
| UUAGGGCCCUGGCUCCAUCUCC | 1.954 ± 0.014 |
| CAGUGCCUCGGCAGUGCAGCCC | 1.45 ± 0.064 |
| GCUACUUCACAACACCAGGGCC | 1.67 ± 0.3 |
| GAAAUCAAGCGUGGGUGAGACC | 1.77 ± 0.15 |
| CUGACUGUUGCCGUCCUCCAG | 1.53 ± 0.13 |
| UGGCUCAGUUCAGCAGGAACAG | 0.611 ± 0.18 |
| UAGGUUAUCCGUGUUGCCUUCG | 1.17 ± 0.16 |
| AAAAGUAAUUGCGGUCUUUGGU | 1.32 ± 0.034 |
| UGAUUGGUACGUCUGUGGGUAG | 2.35 ± 0.031 |
| UGCCUACUGAGCUGAUAUCAGU | 1.62 ± 0.029 |
| AAGGCAGGGCCCCCGCUCCCC | 1.14 ± 0.77 |
| ACCUGGCAUACAAUGUAGAUUU | 1.81 ± 0.29 |
| UAGAUAAAAUAUUGGUACCUG | 1.34 ± 0.55 |
| AACCAGCACCCCAACUUUGGAC | 2.3 ± 0.14 |
| UGUGCUUGCUCGUCCCGCCCGCA | 1.82 ± 0.029 |
| GAACGCCUGUUCUUGCCAGGUGG | 1.4 ± 0.093 |
| CUGCAAAGGGAAGCCCUUUC | 1.21 ± 0.33 |
| AAAGUGCAUCCUUUUAGAGGUU | 0.411 ± 0.64 |
